Entries after “also recorded” stand apart in the source; their conditions may differ.
Legend:
[1] = Photostability of UV absorber in gelatine layer on polyester base (Example 21); format: physicochemical; conditions: for photostability (in words): 30-120 kJ/cm^2 exposure; for Dmax (maximum density in the range 330-380 nm): before exposure, gelatine layer
Method: The amount of UV absorber shown in the table below is dissolved in 2 ml of ethyl acetate. 1 ml of this solution is mixed with 9 ml of an aqueous gelatine solution [comprising 27.6 g/l of gelatine and 6.8 g/l of an 8% aqueous solution of 4,8-diisobutylnaphthalene-2-sulfonic acid (sodium salt) as wetting agent]. This mixture is emulsified for 3 minutes by means of ultrasound. 7.5 ml of this UV absorber emulsion are mixed with 4.5 ml of an aqueous curing agent solution (comprising 0.24% of 2-hydroxy-4,6-dichloro-s-triazine, potassium salt). 8 ml of this emulsion are poured onto a polyester base (13×18 cm). The casting is cured for 7 days at room temperature. A UV spectrometer is then used to determine the values for the maximum density in the range from 330-380 nm. The sample is then exposed in an Arias exposure unit with a total of 30, 60, 90 and 120 kJ/cm^2, the maximum density is remeasured, and the difference (-ΔD in %) between the corresponding values is calculated.

[2] = Solubility of benzotriazole UV absorbers in organic solvents (percent solids of saturated filtrate, ASTM D 2369-81); conditions: for Solubility in organic solvents (in words): organic / coatings solvents
Method: The relative solubility of three different benzotriazole UV absorbers in a five typical organic solvents is measured by dissolving the benzotriazole UV absorber in 50-100 mL of five different solvents till the solutions become supersaturated. This is seen when the benzotriazole begins to settle to the bottom of the test flask. The supersaturated solutions are allowed to remain undisturbed overnight. Then, the top layer is decanted and filtered. […] The higher the percent solids found indicates a more soluble benzotriazole.

[3] = Volatility of UV absorber; format: physicochemical; conditions: long-term coating uses
[4] = Light stabilization effectiveness (general statement); conditions: versus 2-[2-hydroxy-3,5-di(α-cumyl)phenyl]-2H-benzotriazole
[5] = Handling properties and storage stability of the solid form; format: physicochemical; conditions: apparent density
[6] = EXXATE ® 600 (hexyl acetate from Exxon)
[7] = PM acetate (1-methoxy-2-propyl acetate)
[8] = PM solvent (1-methoxy-2-propanol)

SMILES	photostability (in words) [1]	ΔD in % ([1]; 30 KJ exposure (kJ/cm^2)) [%]	ΔD in % ([1]; 60 KJ exposure (kJ/cm^2)) [%]	ΔD in % ([1]; 90 KJ exposure (kJ/cm^2)) [%]	ΔD in % ([1]; 120 KJ exposure (kJ/cm^2)) [%]	Dmax (maximum density in the range 330-380 nm) [1]	Solubility [2, 6] [grams/100 solvent]	Solubility [2, 7] [grams/100 solvent]	Solubility ([2]; butyl acetate) [grams/100 solvent]	Solubility ([2]; methyl amyl ketone) [grams/100 solvent]	Solubility in organic solvents (in words) [2]	Solubility ([2]; xylene) [grams/100 solvent]	volatility [3]	further results
CCCCCCCCCCCCc1cc(C)cc(-n2nc3ccccc3n2)c1O [B, 2(2-hydroxy-3-dodecyl-5-methylphenyl)-2H-benzotriazole]	not as photostable as the UV absorbers D, E and F	5	10	17	25	2.1	–	–	–	–	–	–	–	–
CCC(C)c1cc(C(C)(C)C)cc(-n2nc3ccccc3n2)c1O (stereo not drawn) [A, 2(2-hydroxy-3-sec-butyl-5-tert-butylphenyl)-2H-benzotriazole]	not as photostable as the UV absorbers D, E and F	4	8	16	25	2.0	–	–	–	–	–	–	–	–
CCCCCCCCCCCCc1cc(-n2nc3ccccc3n2)c(O)c(C(C)(C)c2ccccc2)c1 [Example 10, 2-(2-Hydroxy-3-α-cumyl-5-dodecylphenyl)-2H-benzotriazole]	–	2	4	5	8	1.9	> 50	> 50	> 50	> 50	do not suffer from the solubility limitations of UV absorber D in non-HAPS solvents	> 50	–	Solubility ([2]; acetone): > 50 grams/100 solvent
CC(C)(C)CC(C)(C)c1cc(-n2nc3ccccc3n2)c(O)c(C(C)(C)c2ccccc2)c1 [E, 2(2-hydroxy-3-cumyl-5-tert-octylphenyl)-2H-benzotriazole]	–	3	4	5	7	2.0	–	–	–	–	do not suffer from the solubility limitations of UV absorber D in non-HAPS solvents	–	–	–
CC(C)(C)CC(C)(C)c1cc(-n2nc3ccccc3n2)c(O)c(C(C)(C)c2ccccc2)c1 [Example 3, 2-(2-hydroxy-3-α-cumyl-5-tert-octylphenyl)-2H-benzotriazole]	–	–	–	–	–	–	–	–	–	–	essentially the same solubility parameters in the various solvents as seen in Example 13 for the new crystalline modification	–	–	Ease and rate of dissolution ([2]; non-HAPS solvents): dissolves much more easily and rapidly in the non-HAPS solvents; Solubility in organic solvents (in words) ([2]; listed as amorphous modification): excellent solubility characteristics
CCC(C)(C)c1cc(-n2nc3ccccc3n2)c(O)c(C(C)(C)CC)c1 [UV absorber B]	not as photostable as the UV absorbers D, E and F	4	7	12	24	2.1	24	10	27	24	clearly quite soluble even in the solvents other then xylene	54	too volatile for long term coating uses	Solubility [2, 8]: 4 grams/100 solvent
CC(C)(C)CC(C)(C)c1cc(-n2nc3ccccc3n2)c(O)c(C(C)(C)c2ccccc2)c1 [Example 7, 2-(2-hydroxy-3-α-cumyl-5-tert-octylphenyl)-2H-benzotriazole]	–	–	–	–	–	–	22	14	33	33	soluble in environmentally friendly solvents	76	same low volatility	light stabilization effectiveness [4]: superior light stabilization effectiveness; flowability, meterability and storage stability ([5]; listed as compound of formula I): acceptable properties in respect to handling, apparent density, flowability, meterability and storage stability; Solubility [2, 8]: 4 grams/100 solvent
CCCCCCCCCc1cc(-n2nc3ccccc3n2)c(O)c(C(C)(C)c2ccccc2)c1 [Example 4, 2-(2-Hydroxy-3-α-cumyl-5-nonylphenyl)-2H-benzotriazole]	–	–	–	–	–	–	> 50	> 50	> 50	> 50	–	> 50	–	Solubility ([2]; acetone): > 50 grams/100 solvent
CC(C)(c1ccccc1)c1cc(-n2nc3ccccc3n2)c(O)c(C(C)(C)c2ccccc2)c1 [UV absorber A, 2(2-hydroxy-3,5-di-cumylphenyl)-2H-benzotriazole]	no more stable than are UV absorbers E and F	0	5	–	–	1.9	4	3	6	4	–	14	excellent non-volatility	Solubility in organic solvents (in words) ([2]; listed as 2-(2-hydroxy-3,5-di-α-cumylphenyl)-2H-benzotriazole): relatively insoluble; also recorded: sparingly soluble; Solubility in organic solvents (in words) ([2]; listed as 2-[2-hydroxy-3,5-di(α-cumyl)phenyl]-2H-benzotriazole): sparingly soluble in environmentally more friendly solvents; solubility in toluene or xylene ([2]; toluene or xylene): about 14 % by weight; soluble at level in xylene ([2]; xylene): ~14 % (by weight)
CC(C)(C)CC(C)(C)c1cc(-n2nc3ccccc3n2)c(O)c(C(C)(C)c2ccccc2)c1 [Example 2, 2-(2-Hydroxy-3-α-cumyl-5-tert-octylphenyl)-2H-benzotriazole]	–	–	–	–	–	–	–	–	–	–	–	–	–	flowability, meterability and storage stability ([5]; listed as Example 18): poor flowability, meterability and storage stability
